Values of other authors in publication PMC12658903 (RSC Medicinal Chemistry, 2025).

Columns and labels:
TMPRSS2 = settings: read-out: IC50 (μM) TMPRSS2; cited from earlier work
HAT = settings: read-out: IC50 (μM) HAT; cited from earlier work
furin = settings: read-out: IC50 furin; cited from earlier work

| Compound | IC50 (TMPRSS2) | IC50 (HAT) | IC50 (furin) |
| --- | --- | --- | --- |
| CN(C)C(=O)COC(=O)Cc1ccc(OC(=O)c2ccc(NC(=N)N)cc2)cc1 [Camostat, camostat] | […] | 0.151 µM |  |
| N=C(N)c1ccc(/N=N/Nc2ccc(C(=N)N)cc2)cc1 [diminazen] |  |  | 13200 nM |
